Each block holds one compound with its values, some of them ahead of it.
Legend:
[1] = Toxicity in rat brain synaptosomes assessed as reduction in cell viability at 40 uM measured after 1 hr by MTT assay relative to control; format: subcellular, Synaptosome
[2] = Toxicity in rat brain synaptosomes assessed as effect on reduced glutathione level at 40 uM measured after 1 hr relative to control; format: subcellular, Synaptosome; details: in vitro
Brain [3] = assay: Neuroprotective activity against 6-OHDA-induced oxidative stress in rat brain synaptosomes assessed as cell viability at 40 uM by MTT assay relative to control; format: functional, subcellular; details: Synaptosome
Brain [4] = assay: Neuroprotective activity against 6-OHDA-induced oxidative stress in rat brain synaptosomes assessed as GSH level at 40 uM relative to control; format: functional, subcellular; details: Synaptosome
[5] = molecular target: T1, Amine oxidase [flavin-containing] A (Homo sapiens, UniProt P21397); assay: Inhibition of MAOA (unknown origin)
T1 sequence (P21397 whole entry): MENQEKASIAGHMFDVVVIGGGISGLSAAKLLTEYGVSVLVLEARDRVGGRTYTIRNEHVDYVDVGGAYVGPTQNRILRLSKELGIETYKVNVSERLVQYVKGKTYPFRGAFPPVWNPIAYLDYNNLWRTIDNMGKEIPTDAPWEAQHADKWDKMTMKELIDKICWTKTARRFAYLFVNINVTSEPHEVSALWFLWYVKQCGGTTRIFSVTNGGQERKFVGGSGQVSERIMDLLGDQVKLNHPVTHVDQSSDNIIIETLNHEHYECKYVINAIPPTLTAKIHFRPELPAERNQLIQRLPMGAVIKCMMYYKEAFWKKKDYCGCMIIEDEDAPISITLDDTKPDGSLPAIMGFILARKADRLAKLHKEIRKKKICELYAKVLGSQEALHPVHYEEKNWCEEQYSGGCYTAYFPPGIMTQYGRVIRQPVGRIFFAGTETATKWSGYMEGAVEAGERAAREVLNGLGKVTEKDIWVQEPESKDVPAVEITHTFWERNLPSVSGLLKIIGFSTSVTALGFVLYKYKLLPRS

Structure (SMILES): COc1ccc2[nH]cc(/C=N\NC(=O)c3ccc(Cl)cc3)c2c1
Activity [1]: 20%
Activity [2]: 25%
Activity (Brain [3]): 67%
Activity (Brain [4]): 60%

Structure (SMILES): COc1ccc2[nH]cc(/C=N\NC(=O)c3c[nH]c4ccccc34)c2c1
Activity [1]: 20%
Activity [2]: 25%
Activity (Brain [3]): 56%
Activity (Brain [4]): 70%

Structure (SMILES): COc1ccc2[nH]cc(/C=N\NC(=O)c3ccoc3)c2c1
Activity [1]: 20%
Activity [2]: 25%
Activity (Brain [3]): 67%
Activity (Brain [4]): 70%

Structure (SMILES): COc1ccc(C(=O)N/N=C/c2ccc(Cl)cc2Cl)cc1O
Activity [1]: 20%
Activity [2]: 25%
Activity (Brain [3]): 56%
Activity (Brain [4]): 70%

Structure (SMILES): COc1ccc2[nH]cc(/C=N\NC(=O)Cc3c[nH]c4ccccc34)c2c1
Activity [1]: 20%
Activity [2]: 25%
Activity (Brain [3]): 56%
Activity (Brain [4]): 60%

inhibition (INH) [5]: Active
Structure (SMILES): c1ccc(-c2nnc(-c3c[nH]c4ccccc34)o2)cc1
Activity [1]: Non-Toxic
Activity [2]: Non-Toxic
Activity (Brain [3]): 56%
Activity (Brain [4]): 70%

Structure (SMILES): COc1ccc(C(=O)N/N=C/c2ccc(Cl)cc2Cl)cc1OC
Activity [1]: 20%
Activity [2]: 25%
Activity (Brain [3]): 56%
Activity (Brain [4]): 70%

inhibition (INH) [5]: Active
Structure (SMILES): Clc1ccc(-c2nnc(-c3ccccc3)o2)cc1
Activity [1]: Non-Toxic
Activity [2]: Non-Toxic
Activity (Brain [3]): 66%
Activity (Brain [4]): 60%

Structure (SMILES): COc1ccc2[nH]cc(/C=N\NC(=O)c3snnc3C)c2c1
Activity [1]: 15%
Activity [2]: 25%
Activity (Brain [3]): 67%
Activity (Brain [4]): 60%
